From ChEMBL document CHEMBL5335852, “The Promiscuous Flavin-Dependent Monooxygenase PboD from Aspergillus ustus Increases the Structural Diversity of Hydroxylated Pyrroloindoline Diketopiperazines” (J Nat Prod, 2024)
The source made the active and inactive calls.

How the values were obtained:
Assay type in all cases: functional, organism-based
[1] = tested on: Escherichia coli; test: Antibacterial activity against Escherichia coli ATCC 35218 assessed as inhibition of bacterial growth incubated for 20 hrs by agar disk-diffusion method
[2] = tested on: Enterococcus faecalis; test: Antibacterial activity against Enterococcus faecalis DSM 2570 assessed as inhibition of bacterial growth incubated for 20 hrs by agar disk-diffusion method
[3] = tested on: Klebsiella pneumoniae; test: Antibacterial activity against Klebsiella pneumoniae DSM 26371 assessed as inhibition of bacterial growth incubated for 20 hrs by agar disk-diffusion method
[4] = tested on: Bacillus subtilis; test: Antibacterial activity against Bacillus subtilis […] assessed as inhibition of bacterial growth incubated for 20 hrs by agar disk-diffusion method
[5] = tested on: Niallia circulans; test: Antibacterial activity against Bacillus circulans NRRL B-380 assessed as inhibition of bacterial growth incubated for 20 hrs by agar disk-diffusion method
[6] = tested on: Staphylococcus aureus; test: Antibacterial activity against Staphylococcus aureus ATCC29213 assessed as inhibition of bacterial growth incubated for 20 hrs by agar disk-diffusion method
[7] = tested on: Staphylococcus delphini; test: Antibacterial activity against Staphylococcus delphini DSM 20771 assessed as inhibition of bacterial growth incubated for 20 hrs by agar disk-diffusion method
[8] = tested on: Pseudomonas aeruginosa; test: Antibacterial activity against Pseudomonas aeruginosa ATCC 27853 assessed as inhibition of bacterial growth incubated for 20 hrs by agar disk-diffusion method

Measured: Activity

CSCC[C@@H]1NC(=O)[C@@H]2C[C@@]3(O)c4ccccc4N[C@H]3N2C1=O
inactive: [1] | [2] | [3] | [4] | [5] | [6] | [7] | [8]

O=C1N[C@@H](Cc2ccc(O)cc2)C(=O)N2[C@H]1C[C@@]1(O)c3ccccc3N[C@@H]21
inactive: [1] | [2] | [3] | [4] | [5] | [6] | [7] | [8]

C[C@@H]1NC(=O)[C@@H]2C[C@@]3(O)c4ccccc4N[C@H]3N2C1=O
inactive: [1] | [2] | [3] | [4] | [5] | [6] | [7] | [8]

O=C1N[C@@H](Cc2ccccc2)C(=O)N2[C@H]1C[C@@]1(O)c3ccccc3N[C@@H]21
inactive: [1] | [2] | [3] | [4] | [5] | [6] | [7] | [8]

O=C1N[C@@H](Cc2c[nH]c3ccccc23)C(=O)N2[C@H]1C[C@@]1(O)c3ccccc3N[C@@H]21
inactive: [1] | [2] | [3] | [4] | [5] | [6] | [7] | [8]

CC(C)C[C@@H]1NC(=O)[C@@H]2C[C@@]3(O)c4ccccc4N[C@H]3N2C1=O
inactive: [1] | [2] | [3] | [4] | [5] | [6] | [7] | [8]
